US11497713B2, “Combination taxoid nanoemulsion with immunotherapy in cancer” (TargaGenix, Inc., priority 2017, dated 2022)
pIC50: −log10 of the molar value.

Key:
Panc02 induced tumor = experiment: Subcutaneous Panc02 syngeneic pancreatic cancer model, single and combination therapy; format: in vivo, C57Bl/6 mice
Procedure: In addition to evaluation of efficacy in CSC-rich PDAC models, the efficacy of NE-DHA-SBT-1214 in combination with antibody targeted to PD-L1 immune checkpoint inhibitor was examined in subcutaneous (subQ) Panc-2 syngeneic pancreatic cancer model developed in […] mice. After transplantation of the Panc-2 cells, the mice were divided into groups for weekly treatment by intravenous administration of vehicle (as control), gemcitabine (at 120 mg/kg), ABRAXANE® (at 120 mg/kg) and NE-DHA-SBT-1214 (at 10 and 25 mg/kg) as either single in combination with either IgG control or anti-PD-L1 antibody (200 μg/dose). The antibodies were administered intraperitoneally. The treatment started two weeks after tumor transplantation when tumor mass became palpable at 50 to 150 mm^3 in volume.
All experiments involving the use of animals were carried out in strict accordance with the recommendations in the guide for the care and use of laboratory animals of the National Institutes of Health, via a research protocol that was approved by Northeastern University Institutional Animal Care and Use Committee (IACUC). […] Tumor development was monitored twice weekly. The tumor size was measured with a caliper on a weekly basis and approximate tumor volumes determined using the formula 0.5ab^2, where b is the smaller of the two perpendicular diameters. […]

Panc02 cells = experiment: Cell viability (MTT assay) in Panc02 cells; format: cell-based, murine; details: 96 hours of drug exposure
Procedure: The murine pancreatic cancer cell line Panc02, which is syngeneic to C57Bl/6 mice was a kind gift from Professor Michael A. Hollingsworth, UNMC, Omaha, Nebr. Panc02 cells were grown in 75 cm^2 cell culture flasks and maintained in DMEM medium supplemented with 10% fetal bovine serum (FBS), L-glutamine and penicillin (100 U/ml)/streptomycin (100 μg/ml) (both from Gibco Life Technologies, Carlsbad, Calif., USA). Cells were incubated at 37° C. in a humidified atmosphere containing 5% CO2.
To see cytotoxic effect of different drugs and nanoemulsion formulation, 5000 cells were seeded in each well of the 96-well plate for overnight at 37° C. in a humidified atmosphere containing 5% CO2. Various drugs (Paclitaxel, Abraxane, Gemcitabine and solution and nanoemulsion of DHA-SBT-1214) were diluted at concentrations ranging from 0 nM, 0.01 nM, 0.1 nM, 1 nM, 10 nM, 100 nM, 1000 nM to 10000 nM and Panc02 cells treated with these concentrations for 96 hours. After incubation, cells were treated with 3-(4,5-dimethylthiazol-2-yl)-2,5-diphenyltetrazolium bromide ([…]). MU crystals were dissolved with DMSO and plates were read at 570 nm absorbance using a BioTek Synergy HTX Multi-Mode Microplate Reader.
Cells were seeded at 0.5×10^6 cells/well in 6-well plates for overnight at 37 C in a humidified atmosphere containing 5% CO2. […] The percentage maximal response is shown as a function of anti-cancer agents when administered to Panc02 cells. The cell viability was measured by the MTT assay after 96 hours of incubation at 37° C. Data represent mean±standard deviation (n=3). Significant differences are indicated as follows: *p<0.05, and **p<0.01. The expression level of PD-L1 was determined using flow cytometry as follows. […] The cells were washed once with 3% BSA/PBS and analyzed by flow cytometer on a FACSCalibur flow cytometer and CellQuest™ Pro version 6.0 software (both from Becton-Dickinson and Co.). […]

[1] = tested on: PD-L1 surface expression in Panc02 cells; experiment: PD-L1 surface protein expression by flow cytometry; format: cell-based, murine; details: IC50 concentration, 48 hours
Procedure: Cells were seeded at 0.5×10^6 cells/well in 6-well plates for overnight at 37 C in a humidified atmosphere containing 5% CO2. […] The percentage maximal response is shown as a function of anti-cancer agents when administered to Panc02 cells. The cell viability was measured by the MTT assay after 96 hours of incubation at 37° C. Data represent mean±standard deviation (n=3). Significant differences are indicated as follows: *p<0.05, and **p<0.01. The expression level of PD-L1 was determined using flow cytometry as follows. Briefly, cells harvested from in vitro cultures were washed twice with 3% BSA/PBS and then incubated with rat anti-PD-L1 or isotype control antibodies ([…], BioXcell, West Lebanon, N.H., USA) for 30 minutes at 4 C, then washed three times and incubated with anti-rat AlexaFluor 488 conjugated Antibody. The cells were washed once with 3% BSA/PBS and analyzed by flow cytometer on a FACSCalibur flow cytometer and CellQuest™ Pro version 6.0 software (both from Becton-Dickinson and Co.).
Panc02 cells were treated with gemcitabine, Abraxane™, paclitaxel and DHA-SBT-1214 both in solution and nanoemulsion for 48 hours to determine whether they can induce PD-L1 protein expression. PD-L1 expression levels on tumor cells were determined by flow cytometry and is expressed as the A mean fluorescence intensity (ΔMFI; MFI using anti-PD-L1 subtracted from the isotype control). […] PD-L1 expression was analyzed using flow cytometry and is presented as ΔMFI (MFI using anti-PD-L1 subtracted from the isotype control). Data represent the mean±standard deviation of at least 3 independent experiments; *p<0.05, **p<0.01, ***p<0.001. As reported previously, PD-L1 level enhanced in pancreatic tumor tissues compared to in vitro growing cells as shown in FIG. 8.

prostate CD133+ cells = experiment: Prostate cancer stem cells under stemness-promoting culture conditions; format: cell-based
Procedure: In studies with DHA-SBT-1214 and prostate cancer stem cells, Applicants previously determined that low concentrations of DHA-SBT-1214 (0.1-1 μM) induced up to 80-90% death of the highly tumorigenic and highly drug-resistant prostate CD133^+ cells maintained under stemness-promoting culture conditions.

pIC50 (Panc02 cells; Mus musculus) | Structure (SMILES) | efficacy compared to abraxane at 120 mg/kg (Panc02 induced tumor; 10 mg/kg) | pIC50 (Panc02 cells) | PD-L1 surface expression (ΔMFI) [1] | cell death (prostate CD133+ cells; 0.1-1 μM) | expression of pro-apoptotic proteins p53 and p21 (prostate CD133+ cells; previously absent expression) | tumor growth suppression (Panc02 induced tumor; 120 mg/kg weekly ×3)
 | CC/C=C\C/C=C\C/C=C\C/C=C\C/C=C\C/C=C\CCC(=O)O[C@@H](C(=O)O[C@H]1C[C@@]2(O)[C@@H](OC(=O)c3ccccc3)[C@@H]3[C@]4(OC(C)=O)CO[C@@H]4C[C@H](O)[C@@]3(C)C(=O)[C@H](OC(=O)C3CC3)C(=C1C)C2(C)C)[C@H](C=C(C)C)NC(=O)OC(C)(C)C [DHA-SBT-1214, Docosahexaenoic acid conjugate of SBT-1214] | superior to abraxane treatment | 6.58 | upregulated | 80-90% | significant up-regulation | 
6.81 | Nc1ccn([C@@H]2O[C@H](CO)[C@@H](O)C2(F)F)c(=O)n1 [gemcitabine] |  |  | upregulated |  |  | moderate effect
